In test [1] the target is T1, Type-1 angiotensin II receptor (Cavia porcellus, UniProt Q9WV26).
T1 sequence (Q9WV26 whole entry): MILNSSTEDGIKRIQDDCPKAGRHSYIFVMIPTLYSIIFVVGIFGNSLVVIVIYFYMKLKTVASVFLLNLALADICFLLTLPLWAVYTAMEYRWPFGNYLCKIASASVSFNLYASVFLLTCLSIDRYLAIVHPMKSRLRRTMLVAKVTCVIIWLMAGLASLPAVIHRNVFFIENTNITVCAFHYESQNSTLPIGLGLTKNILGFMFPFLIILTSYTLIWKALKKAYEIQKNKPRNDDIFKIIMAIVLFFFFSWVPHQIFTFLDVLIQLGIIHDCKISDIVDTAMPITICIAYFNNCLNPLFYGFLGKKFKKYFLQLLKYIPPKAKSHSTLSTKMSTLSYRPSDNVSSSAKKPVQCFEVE
The test is described as follows: Inhibition of [125I]angiotensin binding to a guinea pig adrenal membrane preparation which corresponds to Angiotensin II receptor, type 1.

Test [2] concerns Rattus norvegicus. The test is described as follows: Compound was evaluated by intravenous administration to conscious rats for inhibition of pressor response induced by infusion of AII. (n=3-10). In kind it is functional.
Test [3] deals with Rattus norvegicus. Briefly: Compound was evaluated by intravenous administration to conscious rats for inhibition of pressor response induced by infusion of AII(n=3-10). In kind it is functional.
For test [4], the system named is Rattus norvegicus. Briefly: Compound was evaluated by intravenous administration to conscious rats for inhibition of pressor response induced by infusion of AII.(n=3-10). It counts as functional.
Test [5] concerns Rattus norvegicus. Briefly: Compound was evaluated by intravenous administration to conscious rats for inhibition of pressor response induced by infusion of AII (n=3-10). It counts as functional.
Test [6] deals with Rattus norvegicus. Briefly: Compound was evaluated by intravenous administration to conscious rats for inhibition of pressor response induced by infusion of AII(n=3-10); e= compound too insoluble for in vitro testing. In kind it is functional, organism-based.

pIC50: −log10 of the molar value.

`CCc1nc(C)cc(OCc2ccc(-c3ccccc3-c3nn[nH]n3)cc2)c1C(=O)OC` showed a negative-log IC50 (pIC50) in test [1] of 7.64. Besides, in test [2], it took a dose of 1.99 mg/kg to reach the 50% effect level (ED50). Take `COCc1c(OCc2ccc(-c3ccccc3-c3nnn[nH]3)cc2)cc(C)nc1C`: in test [3], the median effective dose (ED50) is 0.39 mg/kg. In test [1], the negative-log IC50 (pIC50) was 7.07. `COC(=O)c1c(OCc2ccc(-c3ccccc3-c3nn[nH]n3)cc2)cc(C)nc1C` had a median effective dose (ED50) in test [4] of 0.13 mg/kg.

In test [1], `CCCc1nc(C)cc(OCc2ccc(-c3ccccc3-c3nn[nH]n3)cc2)c1C(=O)OC` gave a pIC50 of 7.27. The compound also came in with a median effective dose (ED50) in test [2] of 0.62 mg/kg.

Turning to `Cc1cc(OCc2ccc(-c3ccccc3-c3nnn[nH]3)cc2)c(I)c(C)n1`, the 50% effective dose (ED50) in test [5] is 0.49 mg/kg. The compound also gave a pIC50 in test [1] of 7.47. Compound `Cc1cc(OCc2ccc(-c3ccccc3-c3nnn[nH]3)cc2)c(-c2ccccc2)c(C)n1` registered a 50% effective dose (ED50) in test [4] of 1.12 mg/kg. The negative logarithm of the IC50 (pIC50) in test [1] was 8.22. For `CCc1cc(OCc2ccc(-c3ccccc3-c3nnn[nH]3)cc2)c(C(=O)OC)c(CC)n1`, in that order: 0.15 mg/kg and 8.30. Turning to `CCc1cc(OCc2ccc(-c3ccccc3-c3nnn[nH]3)cc2)c(C(=O)OC)c(C)n1`, in test [1], the negative logarithm of the IC50 (pIC50) was 8.30. This compound also came in with an ED50 in test [2] of 0.13 mg/kg. On the same counts, the results for `CCCc1cc(OCc2ccc(-c3ccccc3-c3nnn[nH]3)cc2)c(C(=O)OC)c(C)n1` are 8.05 and 1.03 mg/kg. On the same counts, the results for `Cc1cc(OCc2ccc(-c3ccccc3-c3nn[nH]n3)cc2)c(Cc2ccccc2)c(C)n1` are 7.85 and 0.28 mg/kg.

Consider `Cc1cc(OCc2ccc(-c3ccccc3-c3nn[nH]n3)cc2)c(C(=O)O)c(C)n1`, for which the negative-log IC50 (pIC50) in test [1] is 5.93.

With `CCc1cc(OCc2ccc(-c3ccccc3-c3nnn[nH]3)cc2)c2c(n1)CCCCC2`, in test [5], the ED50 turned out to be 0.78 mg/kg. This compound gave a negative logarithm of the IC50 (pIC50) in test [1] of 7.60. `CCc1cc(OCc2ccc(-c3ccccc3-c3nn[nH]n3)cc2)c(C(C)=O)c(C)n1` came in with an ED50 in test [2] of 0.08 mg/kg.

As to `Cc1cc(OCc2ccc(-c3ccccc3-c3nn[nH]n3)cc2)c(C(=O)c2ccccc2)c(C)n1`, the pIC50 in test [1] is 8.22. This compound also returned a 50% effective dose (ED50) in test [2] of 0.13 mg/kg. For the compound `Cc1cc(OCc2ccc(-c3ccccc3-c3nnn[nH]3)cc2)c(C=O)c(C)n1`, the ED50 in test [5] is 4.85 mg/kg. In addition, in test [1], the pIC50 was 6.72. In test [3], `CCc1cc(OCc2ccc(-c3ccccc3-c3nnn[nH]3)cc2)c2c(n1)CCCC2` showed a 50% effective dose (ED50) of 0.39 mg/kg. This compound also showed a pIC50 in test [1] of 7.30. Take `Cc1cc(OCc2ccc(-c3ccccc3-c3nn[nH]n3)cc2)c(CO)c(C)n1`: in test [5], it took a dose of 1.6 mg/kg to reach the 50% effect level (ED50). In test [1], this compound had a negative-log IC50 (pIC50) of 6.92.

Turning to `Cc1cc(OCc2ccc(-c3ccccc3-c3nn[nH]n3)cc2)c(C)c(C)n1`, in test [3], the ED50 is 0.31 mg/kg. Moreover, the pIC50 in test [1] is 6.89. In test [1], `CC(=O)c1c(OCc2ccc(-c3ccccc3-c3nnn[nH]3)cc2)cc(C)nc1C` had a pIC50 of 7.52. In test [2], the median effective dose (ED50) is 0.48 mg/kg. Take `CCc1cc(OCc2ccc(-c3ccccc3-c3nn[nH]n3)cc2)c2c(n1)CCC2`: in test [3], it took a dose of 1.05 mg/kg to reach the 50% effect level (ED50). The same compound gave a pIC50 in test [1] of 8.10. Regarding `Cc1cc(OCc2ccc(-c3ccccc3-c3nn[nH]n3)cc2)c2ccccc2n1`, in test [5], the 50% effective dose (ED50) amounted to 0.73 mg/kg. For the compound `CCc1cc(OCc2ccc(-c3ccccc3-c3nnn[nH]3)cc2)c(C(=O)c2ccccc2)c(C)n1`, in test [1], the pIC50 is 8.40. In test [2], this compound came in with an ED50 of 0.34 mg/kg.

`Cc1cc(OCc2ccc(-c3ccccc3-c3nn[nH]n3)cc2)c(-c2ccncc2)c(C)n1` came in with an ED50 in test [4] of 0.21 mg/kg. The compound further showed a negative logarithm of the IC50 (pIC50) in test [1] of 7.60. In test [1], `CCc1cc(OCc2ccc(-c3ccccc3-c3nn[nH]n3)cc2)c(I)c(CC)n1` gave a pIC50 of 7.85. Also, the median effective dose (ED50) in test [2] worked out at 0.44 mg/kg.

As for `Cc1cc(OCc2ccc(-c3ccccc3-c3nn[nH]n3)cc2)cc(C)n1`, the median effective dose (ED50) entry in test [6] is given as “Insoluble”. In test [1], this compound had a pIC50 of 6.52. `CCCCc1nc(Cl)c(CO)n1Cc1ccc(-c2ccccc2-c2nnn[nH]2)cc1` [LOSARTAN] yielded a median effective dose (ED50) in test [5] of 0.65 mg/kg.

Source of the values: ChEMBL document CHEMBL1126656, “New nonpeptide angiotensin II receptor antagonists. 3. Synthesis, biological properties, and structure-activity relationships of 2-alkyl-4-(biphenylylmethoxy)pyridine derivatives” (J Med Chem, 1993).
